Results published in patent publication US9657014B2, “Substituted 1,6-naphthyridines” (Hoffmann-La Roche Inc., priority 2012, dated 2017).

Tested on: human embryonic stem cell derived neural stem cells (NSCs)
Assay: Neural stem cell proliferation assay (neurogenesis assay)
Format: cell-based
Settings: Homo sapiens, Neural stem cell, 96 h, concentration at which 150% activity of control (100%) is reached, ATP levels (CellTiterGlo) after 4 days incubation
How it was run: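 NSCs derived from human ES cells by dual SMAD inhibition, seeded on polyornithin/laminin, dosed 4 h later (11 points, 8 μM to 8 nM). After 4 days at 37° C, ATP luminescence read; response = compound/medium control ×100, EC150 = concentration giving 150% of control.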

Row | Structure (SMILES) | EC (150% of control) (Table 1, novel compounds) [µM] | EC (150% of control) (Table 2, known compounds) [µM]
1 | CC(NC(=O)c1ccc2cncc(-c3ccccc3Cl)c2n1)C(C)(C)O (stereo not shown) [Example 171, 8-(2-Chlorophenyl)-N-(3-hydroxy-3-methylbutan-2-yl)-1,6-naphthyridine-2-carboxamide] | 0.12 | –
2 | CC(NC(=O)c1ccc2cncc(-c3ccc(Cl)cc3Cl)c2n1)C(C)(C)O (stereo not shown) [Example 172, 8-(2,4-Dichlorophenyl)-N-(3-hydroxy-3-methylbutan-2-yl)-1,6-naphthyridine-2-carboxamide] | 0.5 | –
3 | CC(NC(=O)c1ccc2cncc(-c3cc(F)c(F)c(F)c3)c2n1)C(C)(C)O (stereo not shown) [Example 173, N-(3-Hydroxy-3-methylbutan-2-yl)-8-(3,4,5-trifluorophenyl)-1,6-naphthyridine-2-carboxamide] | 0.9 | –
4 | CC(NC(=O)c1ccc2cncc(-c3ccc(Cl)nc3)c2n1)C(C)(C)O (stereo not shown) [Example 174, 8-(6-Chloropyridin-3-yl)-N-(3-hydroxy-3-methylbutan-2-yl)-1,6-naphthyridine-2-carboxamide] | 0.61 | –
5 | CC(NC(=O)c1ccc2cncc(-c3cccc(Cl)n3)c2n1)C(C)(C)O (stereo not shown) [Example 175, 8-(6-Chloropyridin-2-yl)-N-(3-hydroxy-3-methylbutan-2-yl)-1,6-naphthyridine-2-carboxamide] | 1.03 | –
6 | Cc1ccccc1-c1cncc2ccc(C(=O)NC(C)C(C)(C)O)nc12 (stereo not shown) [Example 176, N-(3-Hydroxy-3-methylbutan-2-yl)-8-o-tolyl-1,6-naphthyridine-2-carboxamide] | 0.28 | –
7 | COc1ccc(-c2cncc3ccc(C(=O)NCCCn4ccnc4)nc23)cc1 [Example 179, 8-(4-Methoxy-phenyl)-[1,6]naphthyridine-2-carboxylic acid (3-imidazol-1-yl-propyl)-amide] | – | 0.7
8 | COc1ccc(-c2cncc3ccc(C(=O)NCc4cnc(C)cn4)nc23)cc1 [Example 180, 8-(4-Methoxy-phenyl)-[1,6]naphthyridine-2-carboxylic acid (5-methyl-pyrazin-2-ylmethyl)-amide] | – | 1.26
9 | COc1ccc(-c2cncc3ccc(C(=O)NCc4ccncc4)nc23)cc1 [Example 181, 8-(4-Methoxy-phenyl)-[1,6]naphthyridine-2-carboxylic acid (pyridin-4-ylmethyl)-amide] | – | 0.04
10 | COc1ccc(-c2cncc3ccc(C(=O)N4CCOCC4)nc23)cc1 [Example 182, [8-(4-Methoxy-phenyl)-[1,6]naphthyridin-2-yl]-morpholin-4-yl-methanone] | – | 5.4
11 | COc1ccc(-c2cncc3ccc(C(=O)N4CCCCC4)nc23)cc1 [Example 183, [8-(4-Methoxy-phenyl)-[1,6]naphthyridin-2-yl]-piperidin-1-yl-methanone] | – | 1.25
12 | COc1ccc(-c2cncc3ccc(C(=O)NCc4ccccc4)nc23)cc1 [Example 184, 8-(4-Methoxy-phenyl)-[1,6]naphthyridine-2-carboxylic acid benzylamide] | – | 0.16
13 | COc1ccc(-c2cncc3ccc(C(=O)N4CCN(c5ccccn5)CC4)nc23)cc1 [Example 185, [8-(4-Methoxy-phenyl)-[1,6]naphthyridin-2-yl]-(4-pyridin-2-yl-piperazin-1-yl)-methanone] | – | 0.8
14 | COc1ccc(-c2cncc3ccc(C(=O)NCc4ccc(C(F)(F)F)nc4)nc23)cc1 [Example 186, 8-(4-Methoxy-phenyl)-[1,6]naphthyridine-2-carboxylic acid (6-trifluoromethyl-pyridin-3-ylmethyl)-amide] | – | 0.67
15 | COc1ccc(-c2cncc3ccc(C(=O)N4CCN(Cc5nc(OC)cc(OC)n5)CC4)nc23)cc1 [Example 187, [4-(4,6-Dimethoxy-pyrimidin-2-ylmethyl)-piperazin-1-yl]-[8-(4-methoxy-phenyl)-[1,6]naphthyridin-2-yl]-methanone] | – | 0.71
16 | O=C(NCCCN1CCOCC1)c1ccc2cncc(-c3ccccc3)c2n1 [Example 188, 8-Phenyl-[1,6]naphthyridine-2-carboxylic acid (3-morpholin-4-yl-propyl)-amide] | – | 6.8
17 | O=C(NCCCn1ccnc1)c1ccc2cncc(-c3ccccc3)c2n1 [Example 189, 8-Phenyl-[1,6]naphthyridine-2-carboxylic acid (3-imidazol-1-yl-propyl)-amide] | – | 1.2

Row | Structure (SMILES) | EC (150% of control) (Table 1, novel compounds) [µM] | EC (150% of control) (Table 2, known compounds) [µM]
18 | Cc1cnc(CNC(=O)c2ccc3cncc(-c4ccccc4)c3n2)cn1 [Example 190, 8-Phenyl-[1,6]naphthyridine-2-carboxylic acid (5-methyl-pyrazin-2-ylmethyl)-amide] | – | 0.5
19 | O=C(NCc1ccccc1)c1ccc2cncc(-c3ccccc3)c2n1 [Example 191, 8-Phenyl-[1,6]naphthyridine-2-carboxylic acid benzylamide] | – | 0.44
20 | O=C(c1ccc2cncc(-c3ccccc3)c2n1)N1CCN(c2ccccn2)CC1 [Example 192, (8-Phenyl-[1,6]naphthyridin-2-yl)-(4-pyridin-2-yl-piperazin-1-yl)-methanone] | – | 1.4
21 | O=C(NC1CCN(Cc2ccccc2)CC1)c1ccc2cncc(-c3ccccc3)c2n1 [Example 193, 8-Phenyl-[1,6]naphthyridine-2-carboxylic acid (1-benzyl-piperidin-4-yl)-amide] | – | 1.9
22 | COc1ccccc1CNC(=O)c1ccc2cncc(-c3ccccc3)c2n1 [Example 194, 8-Phenyl-[1,6]naphthyridine-2-carboxylic acid 2-methoxy-benzylamide] | – | 0.73
23 | CS(=O)(=O)c1ccc(CNC(=O)c2ccc3cncc(-c4ccccc4)c3n2)cc1 [Example 195, 8-Phenyl-[1,6]naphthyridine-2-carboxylic acid 4-methanesulfonyl-benzylamide] | – | 4
24 | O=C(NCc1ccc(C(F)(F)F)nc1)c1ccc2cncc(-c3ccccc3)c2n1 [Example 196, 8-Phenyl-[1,6]naphthyridine-2-carboxylic acid (6-trifluoromethyl-pyridin-3-ylmethyl)-amide] | – | 3.7
25 | O=C(NCCCn1ccnc1)c1ccc2cncc(-c3ccsc3)c2n1 [Example 197, 8-Thiophen-3-yl-[1,6]naphthyridine-2-carboxylic acid (3-imidazol-1-yl-propyl)-amide] | – | 1.98
26 | O=C(NCc1ccncc1)c1ccc2cncc(-c3ccsc3)c2n1 [Example 198, 8-Thiophen-3-yl-[1,6]naphthyridine-2-carboxylic acid (pyridin-4-ylmethyl)-amide] | – | 0.12
27 | O=C(NCc1ccccc1)c1ccc2cncc(-c3ccsc3)c2n1 [Example 199, 8-Thiophen-3-yl-[1,6]naphthyridine-2-carboxylic acid benzylamide] | – | 0.1
28 | O=C(c1ccc2cncc(-c3ccsc3)c2n1)N1CCN(c2ccccn2)CC1 [Example 200, (4-Pyridin-2-yl-piperazin-1-yl)-(8-thiophen-3-yl-[1,6]naphthyridin-2-yl)-methanone] | – | 0.8
29 | O=C(NCc1ccc(Cl)cc1)c1ccc2cncc(-c3ccsc3)c2n1 [Example 201, 8-Thiophen-3-yl-[1,6]naphthyridine-2-carboxylic acid 4-chloro-benzylamide] | – | 0.8
30 | COc1ccccc1CNC(=O)c1ccc2cncc(-c3ccsc3)c2n1 [Example 202, 8-Thiophen-3-yl-[1,6]naphthyridine-2-carboxylic acid 2-methoxy-benzylamide] | – | 0.15
31 | O=C(NCc1ccc(C(F)(F)F)nc1)c1ccc2cncc(-c3ccsc3)c2n1 [Example 203, 8-Thiophen-3-yl-[1,6]naphthyridine-2-carboxylic acid (6-trifluoromethyl-pyridin-3-ylmethyl)-amide] | – | 1.5
32 | COCCNC(=O)c1ccc2cncc(-c3ccccc3)c2n1 [Example 204, 8-Phenyl-[1,6]naphthyridine-2-carboxylic acid (2-methoxy-ethyl)-amide] | – | 0.2
33 | O=C(c1ccc2cncc(-c3cc4ccccc4o3)c2n1)N1CCCCC1 [Example 205, (8-Benzofuran-2-yl-[1,6]naphthyridin-2-yl)-piperidin-1-yl-methanone] | – | 3.5
34 | NC(=O)c1ccc2cncc(Br)c2n1 [Example 206, 8-Bromo-1,6-naphthyridine-2-carboxamide] | – | 0.8
